Consider 6 molecules from patent US20040009534A1, “Protein analysis” (DYAX CORPORATION, priority 2002, published 2004).

The Kd is the constant that tells how readily two partners part at equilibrium.

One data set addresses Goat albumin. The data set can be described thus: Dissociation constants (KD) against a panel of albumins. In kind it is binding. An excerpt: (§1) The binding properties of a ligand that binds a serum protein can be readily assessed using various assay formats. For example, the binding property of a ligand can be measured in solution by fluorescence anisotropy, which provides a convenient and accurate method of determining a dissociation constant (KD) of a binding moiety for a serum albumin from one or more different species. In one such procedure, a binding moiety described herein is labeled with fluorescein. The fluorescein-labeled binding moiety may then be mixed in wells of a multi-well assay plate with various concentrations of a particular species of serum albumin. Fluorescence anisotropy measurements are then carried out using a fluorescence polarization plate reader. The binding interaction between a serum protein and a non-covalently associated compound can be similarly characterized. Other solution measures for studying binding properties include fluorescence resonance energy transfer (FRET) and NMR.

The target of data set [1] is T1, HSA (Homo sapiens, UniProt P02768).
T1 construct: SwissProt entry: P02768 and/or the following mature
Description: HSA binding test of analytical peptide-Sepharose affinity columns. As to conditions: 1 mg HSA injection; for Total Capacity: 0.35 ml column. On the procedure: The immobilization reaction was initiated by the addition of diisopropylethylamine to 2% (vol/vol). After 4 hours of slow mixing on a shaker table at room temperature, the reaction was quenched by the addition of an equal volume of 0.5 M hydroxylamine, pH 8, in water. For those peptides with ivDde-protected internal lysines, the hydroxylamine quench treatment also removed the ivDde-protecting group. To allow for complete protecting group removal, the quenched reaction was allowed to incubate overnight at room temperature. Once quenched and deprotected, the immobilized peptide-Sepharose resin was washed at least 3 times with water to remove solvent and unbound peptide. Non-specifically bound peptide was eluted off the resin by washing the resin at least three times in 30 mM phosphoric acid, pH 2. Since the NHS-Sepharose resin surface becomes negatively charged after hydrolysis, an acidic wash neutralizes the surface and removes any peptides bound non-covalently to the surface via electrostatic interactions. After washing, the resin was resuspended in water as a 50% v/v mixture. A 50 μl aliquot was used to determine the ligand density on the resin by quantitative amino acid analysis. Finally, the resin slurry was packed into 0.35 ml OMNIFIT™ glass columns (3 mm×50 mm) for analytical testing.
Each peptide was immobilized at high density on NHS-Sepharose resin using the procedure outlined above. The peptides were immobilized via a C-terminal lysine. […] Each column was tested for HSA binding (1 mg injection) in binding buffer—3 mM sodium phosphate, 0.1% Tween-20 detergent, pH 6.2.
One milliliter of albumin solution was passed through each column (0.35 ml) previously equilibrated in equilibration buffer. The columns were washed with the same equilibration buffer and then eluted with 100 mM Tris, pH 9.1 (flow rate, 0.5 ml/min for all steps). The column chromatography was carried out using a BIO-RAD BIOLOGIC™ monitoring system (Hercules, Calif.) throughout this testing with absorbance monitoring at 280 nm.

The target of another data set is T2, chicken ovalbumin (Gallus gallus, UniProt P01012).
T2 sequence (P01012 1-386): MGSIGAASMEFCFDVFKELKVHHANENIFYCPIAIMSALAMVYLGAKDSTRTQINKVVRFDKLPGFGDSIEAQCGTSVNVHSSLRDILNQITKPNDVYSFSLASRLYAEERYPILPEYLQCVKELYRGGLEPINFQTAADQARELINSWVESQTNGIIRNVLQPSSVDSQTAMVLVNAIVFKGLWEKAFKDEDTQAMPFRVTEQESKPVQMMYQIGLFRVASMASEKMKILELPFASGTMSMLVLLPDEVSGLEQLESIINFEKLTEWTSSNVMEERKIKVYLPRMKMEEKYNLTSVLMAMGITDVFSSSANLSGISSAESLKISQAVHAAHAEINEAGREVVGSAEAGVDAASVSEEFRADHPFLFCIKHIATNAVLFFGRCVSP
Description: Dissociation constants (KD) against a panel of albumins, negative control. In kind it is binding. As to conditions: both sets of buffers.
Excerpt: as §1
Chicken ovalbumin is not homologous to HSA as determined by sequence alignment analysis.

Data set [2] concerns the target murine serum albumin (MSA) (Mus musculus, UniProt P07724). Description: Dissociation constants (KD) against a panel of albumins. In kind it is binding.
Excerpt: as §1

For data set [3], the target named is T1, HSA. Described as above. In kind it is binding. The note with it: phosphate, pH 6.2, O M NaCl.
Excerpt: as §1

In a further data set the target is human IgG1. As to conditions: read-out: dissociation constants (KD), cited from earlier work.
The target of a further data set is human IgG3. The note with it: human IgG3, pH 5.7; read-out: dissociation constants (KD); cited from earlier work.
The subject of another data set is Fc protein. The note with it: from buffer solution and tobacco extract; cited from earlier work.
Where [4] appears, read: fraction: Elution (100 mM Tris, pH 9.1).

Read-outs that look alike come from different tables or passages of the source.

Sequence of human IgG1 (P01857 1-330 isoform P01857-1): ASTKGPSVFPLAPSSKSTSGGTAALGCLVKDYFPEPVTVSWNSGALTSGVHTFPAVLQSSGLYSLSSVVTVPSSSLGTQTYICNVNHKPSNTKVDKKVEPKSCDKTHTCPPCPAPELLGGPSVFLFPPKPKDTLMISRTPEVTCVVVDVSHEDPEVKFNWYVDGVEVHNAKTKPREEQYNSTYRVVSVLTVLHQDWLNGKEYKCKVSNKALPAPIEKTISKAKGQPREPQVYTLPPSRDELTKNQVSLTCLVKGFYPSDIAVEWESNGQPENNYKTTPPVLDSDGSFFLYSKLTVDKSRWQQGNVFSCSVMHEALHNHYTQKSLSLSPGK
T1 sequence (P02768 25-609): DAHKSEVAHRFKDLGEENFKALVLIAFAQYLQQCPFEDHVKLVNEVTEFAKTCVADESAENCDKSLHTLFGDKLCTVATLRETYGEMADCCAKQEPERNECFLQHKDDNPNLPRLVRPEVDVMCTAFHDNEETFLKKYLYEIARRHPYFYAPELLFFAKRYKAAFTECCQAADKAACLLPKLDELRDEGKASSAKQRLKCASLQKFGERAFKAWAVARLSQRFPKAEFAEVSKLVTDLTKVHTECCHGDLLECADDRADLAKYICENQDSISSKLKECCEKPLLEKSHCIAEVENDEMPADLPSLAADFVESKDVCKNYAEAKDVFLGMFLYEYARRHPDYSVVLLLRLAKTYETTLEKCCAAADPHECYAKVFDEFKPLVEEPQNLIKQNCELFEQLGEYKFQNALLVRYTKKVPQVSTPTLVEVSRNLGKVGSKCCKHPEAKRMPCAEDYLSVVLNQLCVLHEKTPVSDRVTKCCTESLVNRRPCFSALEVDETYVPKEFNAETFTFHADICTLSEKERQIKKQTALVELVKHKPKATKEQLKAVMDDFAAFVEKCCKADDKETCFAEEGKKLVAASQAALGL
Sequence of murine serum albumin (MSA) (P07724 25-608): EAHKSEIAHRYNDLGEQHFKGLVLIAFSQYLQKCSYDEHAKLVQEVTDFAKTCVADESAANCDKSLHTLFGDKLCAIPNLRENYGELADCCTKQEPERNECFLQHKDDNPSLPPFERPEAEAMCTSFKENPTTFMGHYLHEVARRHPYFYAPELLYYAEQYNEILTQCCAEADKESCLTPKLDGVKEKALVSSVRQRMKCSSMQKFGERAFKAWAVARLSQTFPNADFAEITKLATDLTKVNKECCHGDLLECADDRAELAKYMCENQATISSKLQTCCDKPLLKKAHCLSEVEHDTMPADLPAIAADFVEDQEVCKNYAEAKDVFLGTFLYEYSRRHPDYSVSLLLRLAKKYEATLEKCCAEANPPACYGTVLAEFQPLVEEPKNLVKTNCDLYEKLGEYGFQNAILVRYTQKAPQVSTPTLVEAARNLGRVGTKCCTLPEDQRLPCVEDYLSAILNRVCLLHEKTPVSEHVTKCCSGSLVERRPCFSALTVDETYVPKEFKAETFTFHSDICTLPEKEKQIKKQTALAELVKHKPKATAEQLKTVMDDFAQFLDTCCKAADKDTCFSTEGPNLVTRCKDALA
Sequence of human IgG3 (P01860 1-377 isoform P01860-1): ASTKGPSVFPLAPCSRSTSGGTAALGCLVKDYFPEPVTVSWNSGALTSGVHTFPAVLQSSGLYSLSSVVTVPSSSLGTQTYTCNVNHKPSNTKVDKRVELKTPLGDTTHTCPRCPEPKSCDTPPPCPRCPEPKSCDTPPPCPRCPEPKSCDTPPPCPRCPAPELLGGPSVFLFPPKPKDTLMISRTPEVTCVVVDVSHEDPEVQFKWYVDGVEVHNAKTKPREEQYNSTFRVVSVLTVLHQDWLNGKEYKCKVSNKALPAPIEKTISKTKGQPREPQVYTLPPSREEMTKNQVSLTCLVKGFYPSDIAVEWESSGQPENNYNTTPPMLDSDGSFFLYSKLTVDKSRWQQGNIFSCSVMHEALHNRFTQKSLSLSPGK

On to `CC[C@H](C)[C@@H]1NC(=O)[C@H](CCCNC(=N)N)NC(=O)[C@H](CC(=O)O)NC(=O)[C@@H](NC(=O)[C@H](Cc2ccccc2)NC(=O)[C@H](Cc2c[nH]c3ccccc23)NC(=O)[C@H](Cc2ccccc2)NC(=O)[C@H](CC(=O)O)NC(=O)CNC(=O)[C@@H](NC(=O)CNC(=O)[C@H](CCC(=O)O)NC(=O)[C@H](C)NC(C)=O)[C@@H](C)O)CSSC[C@@H](C(=O)N[C@@H](CCC(=O)O)C(=O)N[C@@H](Cc2ccccc2)C(=O)N[C@@H](CC(C)C)C(=O)N[C@@H](CC(=O)O)C(=O)N2CCC[C@H]2C(=O)N[C@@H](CCC(=O)O)C(=O)NCC(=O)NCC(=O)NCC(=O)N[C@@H](CCCCN)C(N)=O)NC(=O)[C@H](CC(C)C)NC(=O)[C@H](Cc2c[nH]cn2)NC(=O)[C@H](CCC(N)=O)NC(=O)[C@@H]2CCCN2C(=O)[C@H](Cc2ccc(O)cc2)NC(=O)[C@H](Cc2c[nH]c3ccccc23)NC(=O)[C@H](C)NC1=O` [DX-236], for which the Kd on Goat albumin (PBS, pH 7.4, […] NaCl) came out at 23 µM; at Goat albumin (phosphate, pH 6.2, O M NaCl), 1.6 µM. Further, the “Total Capacity” value on HSA [1] was greater than 2.7 mg/mL. The “μg HSA” value on HSA [1] (setting [4]) came out at 947 µg; at HSA [1] (fraction: Flow through, pH 6.2), 0 µg. Besides, the “binding to chicken ovalbumin” value at chicken ovalbumin was “neither peptide showed any significant binding”.
For `CC[C@H](C)[C@@H]1NC(=O)[C@H](Cc2c[nH]c3ccccc23)NC(=O)[C@H](CO)NC(=O)[C@H](Cc2ccccc2)NC(=O)[C@H](CCCCN)NC(=O)[C@@H](NC(=O)[C@H](CCSC)NC(=O)[C@H](CC(N)=O)NC(=O)[C@H](CCCNC(=N)N)NC(=O)[C@H](CC(=O)O)NC(=O)CNC(=O)[C@@H](NC(=O)CNC(=O)[C@H](CCC(=O)O)NC(=O)[C@H](C)NC(C)=O)[C@@H](C)O)CSSC[C@@H](C(=O)N[C@@H](C)C(=O)N[C@@H](CCCNC(=N)N)C(=O)N[C@@H](C)C(=O)N[C@@H](CC(=O)O)C(=O)N2CCC[C@H]2C(=O)N[C@@H](CCC(=O)O)C(=O)NCCCCCC(=O)N[C@@H](CCCCN)C(N)=O)NC(=O)[C@H](Cc2ccccc2)NC(=O)[C@H](C)NC(=O)[C@@H]2CCCN2C(=O)[C@H](CO)NC(=O)[C@H](CCCNC(=N)N)NC1=O` [DX-321], the Kd in data set [2] (PBS, pH 7.4, 0.14 M NaCl) was greater than 200 µM; in data set [2] (phosphate, pH 6.2, O M NaCl), greater than 200 µM; on Goat albumin (PBS, pH 7.4, […] NaCl), 83 µM; on Goat albumin (phosphate, pH 6.2, O M NaCl), 95 µM. In addition, the KD result on HSA [3] is recorded as “submicromolar”. For the same molecule, the “Total Capacity” value at HSA [1] is greater than 1.1 mg/mL. Besides, the “μg HSA” value at HSA [1] (setting [4]) was 370 µg; at HSA [1] (fraction: Flow through, pH 6.2), 554 µg. Further, the “binding to chicken ovalbumin” value on chicken ovalbumin is “neither peptide showed any significant binding”.
For AGYYWCNYWGLCPDQGTPGPEGGGK [DX254], the Kd on human IgG1 (IgG1, pH 7.4) was less than 2 µM; on human IgG1 (human IgG1, pH 5.7) it was less than 0.1 µM; on human IgG1 (human IgG1, pH 9.3), less than 1 µM.
As to GDDDHCYWFREWFNSECPHGEPGPEGGGK [DX252], the dissociation constant Kd at human IgG3 is less than 0.1 µM.
Turning to GDDHMCVYTTWGELIWCDNHEPGPEGGGK [DX249], the Kd on human IgG1 (IgG1, pH 7.4) was less than 0.5 µM; at human IgG1 (human IgG1, pH 5.7) it was less than 0.1 µM.
Turning to GDRRACSRDWSGALVWCAGHEPGPEGGGK [DX253], the “capture efficiency (quantitative binding of Fc protein)” value with Fc protein was > 90 % of total load.
